In PubChem BioAssay (NCI):
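Tested at 5 concentrations; 48 h exposure; 96-well plates; endpoints linearly interpolated, else capped at highest concentration. Definition used: TGI = concentration required for complete inhibition of growth.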 Square brackets hold non-standard residues; d marks the D form. Peptide text beside a SMILES is read from it. * marks the point of attachment. Boc = CC(C)(C)OC(=O)*; OBn = c1ccc(CO*)cc1

Assays:
Assay in all cases: DTP human tumour cell line panel, 48 h
DU-145 prostate = system: DU-145 prostate
SK-MEL-5 melanoma = system: SK-MEL-5 melanoma
NCI-H522 lung = system: NCI-H522 lung
A549 NSCLC = system: A549 NSCLC
LOX IMVI melanoma = system: LOX IMVI melanoma
ACHN renal = system: ACHN renal
EKVX NSCLC = system: EKVX NSCLC
NCI-H23 lung = system: NCI-H23 lung
SF-539 CNS = system: SF-539 CNS
MDA-N = system: MDA-N
SW-620 colon = system: SW-620 colon
NCI-H226 lung = system: NCI-H226 lung
KM12 colon = system: KM12 colon
HS 578T breast = system: HS 578T breast
SN12C renal = system: SN12C renal
HL-60(TB) leukemia = system: HL-60(TB) leukemia
HCT-116 colon = system: HCT-116 colon
SNB-75 CNS = system: SNB-75 CNS
786-0 renal = system: 786-0 renal
HCT-15 colon = system: HCT-15 colon
PC-3 prostate = system: PC-3 prostate
SF-295 CNS = system: SF-295 CNS
M14 melanoma = system: M14 melanoma
SR leukemia = system: SR leukemia
A498 renal = system: A498 renal
HT29 colon = system: HT29 colon
SK-MEL-28 melanoma = system: SK-MEL-28 melanoma
MDA-MB-231 breast = system: MDA-MB-231 breast
MCF7 breast = system: MCF7 breast
CAKI-1 renal = system: CAKI-1 renal
MOLT-4 leukemia = system: MOLT-4 leukemia
UACC-257 melanoma = system: UACC-257 melanoma
TK-10 renal = system: TK-10 renal
CCRF-CEM leukemia = system: CCRF-CEM leukemia
OVCAR-5 ovarian = system: OVCAR-5 ovarian
NCI-H460 lung = system: NCI-H460 lung
UO-31 renal = system: UO-31 renal
SNB-19 CNS = system: SNB-19 CNS
OVCAR-3 ovarian = system: OVCAR-3 ovarian
MDA-MB-435 = system: MDA-MB-435
SK-MEL-2 melanoma = system: SK-MEL-2 melanoma
RPMI-8226 leukemia = system: RPMI-8226 leukemia
K-562 leukemia = system: K-562 leukemia
T-47D breast = system: T-47D breast
BT-549 breast = system: BT-549 breast
NCI/ADR-RES ovarian = system: NCI/ADR-RES ovarian
COLO 205 colon = system: COLO 205 colon
HOP-62 NSCLC = system: HOP-62 NSCLC
OVCAR-8 ovarian = system: OVCAR-8 ovarian
OVCAR-4 ovarian = system: OVCAR-4 ovarian
U251 CNS = system: U251 CNS
IGROV1 ovarian = system: IGROV1 ovarian
UACC-62 melanoma = system: UACC-62 melanoma
RXF 393 renal = system: RXF 393 renal
SF-268 CNS = system: SF-268 CNS
SK-OV-3 ovarian = system: SK-OV-3 ovarian
MALME-3M melanoma = system: MALME-3M melanoma
HOP-92 NSCLC = system: HOP-92 NSCLC

In the case of CC(C)C(=O)OCN(C)c1nc(N(C)COC(=O)C(C)C)nc(N(C)COC(=O)C(C)C)n1, the TGI (DU-145 prostate) is reported as > 100 µM, the TGI (SK-MEL-5 melanoma) is reported as 28.4 µM and the TGI (NCI-H522 lung) is reported as 36 µM. The TGI (A549 NSCLC) was > 100 µM, the TGI (LOX IMVI melanoma) was 39.1 µM and the TGI (ACHN renal) was 99.6 µM. The TGI (EKVX NSCLC) was > 100 µM, the TGI (NCI-H23 lung) was 41.2 µM and the TGI (SF-539 CNS) was 53.9 µM. For the same compound, the TGI (MDA-N) was 46.2 µM, the TGI (SW-620 colon) was 89.6 µM and the TGI (NCI-H226 lung) was > 100 µM. For the same compound, the TGI (KM12 colon) was 43.9 µM, the TGI (HS 578T breast) was 49.1 µM and the TGI (SN12C renal) was > 100 µM. The TGI (HL-60(TB) leukemia) was 48.9 µM, the TGI (HCT-116 colon) was > 100 µM and the TGI (SNB-75 CNS) was 61.9 µM. For the same compound, the TGI (786-0 renal) was 65.2 µM, the TGI (HCT-15 colon) was 51 µM and the TGI (PC-3 prostate) was > 100 µM. It also gave a TGI (SF-295 CNS) of 93.2 µM, a TGI (M14 melanoma) of 33 µM and a TGI (SR leukemia) of 50.5 µM. The TGI (A498 renal) was > 100 µM, the TGI (HT29 colon) was 66.3 µM and the TGI (SK-MEL-28 melanoma) was 44.5 µM. The TGI (MDA-MB-231 breast) was 57.7 µM, the TGI (MCF7 breast) was > 100 µM and the TGI (CAKI-1 renal) was > 100 µM. The TGI (MOLT-4 leukemia) was 58.1 µM, the TGI (UACC-257 melanoma) was 38.2 µM and the TGI (TK-10 renal) was > 100 µM. The TGI (CCRF-CEM leukemia) was 70.5 µM, the TGI (OVCAR-5 ovarian) was 95.3 µM and the TGI (NCI-H460 lung) was 54.2 µM. For the same compound, the TGI (UO-31 renal) was 52.5 µM, the TGI (SNB-19 CNS) was > 100 µM and the TGI (OVCAR-3 ovarian) was > 100 µM. For the same compound, the TGI (MDA-MB-435) was 32.2 µM, the TGI (SK-MEL-2 melanoma) was 49.8 µM and the TGI (RPMI-8226 leukemia) was > 100 µM. The TGI (K-562 leukemia) was > 100 µM, the TGI (T-47D breast) was > 100 µM and the TGI (BT-549 breast) was 46.2 µM. For the same compound, the TGI (NCI/ADR-RES ovarian) was > 100 µM, the TGI (COLO 205 colon) was 51.3 µM and the TGI (HOP-62 NSCLC) was > 100 µM. The TGI (OVCAR-8 ovarian) was 45.5 µM and the TGI (OVCAR-4 ovarian) was 58.3 µM.

With C[C@@H](NC(=O)CNC(=O)OC(C)(C)C)C(=O)N[C@@H](Cc1ccccc1)C(=O)OCc1ccccc1 (Boc-Gly-[dA]-Phe-OBn) the TGI (DU-145 prostate) was > 100 µM, the TGI (U251 CNS) was > 100 µM and the TGI (SK-MEL-5 melanoma) was 42.2 µM. For the same compound, the TGI (NCI-H522 lung) was 80.4 µM, the TGI (A549 NSCLC) was > 100 µM and the TGI (LOX IMVI melanoma) was 58 µM. For the same compound, the TGI (IGROV1 ovarian) was > 100 µM, the TGI (ACHN renal) was > 100 µM and the TGI (EKVX NSCLC) was > 100 µM. For the same compound, the TGI (NCI-H23 lung) was > 100 µM, the TGI (SF-539 CNS) was > 100 µM and the TGI (MDA-N) was > 100 µM. For the same compound, the TGI (UACC-62 melanoma) was > 100 µM, the TGI (RXF 393 renal) was > 100 µM and the TGI (SW-620 colon) was > 100 µM. The TGI (NCI-H226 lung) was > 100 µM, the TGI (KM12 colon) was > 100 µM and the TGI (HS 578T breast) was 71.2 µM. For the same compound, the TGI (SN12C renal) was > 100 µM, the TGI (HL-60(TB) leukemia) was > 100 µM and the TGI (HCT-116 colon) was > 100 µM. For the same compound, the TGI (SNB-75 CNS) was > 100 µM, the TGI (786-0 renal) was > 100 µM and the TGI (HCT-15 colon) was > 100 µM. The TGI (PC-3 prostate) was > 100 µM, the TGI (SF-295 CNS) was > 100 µM and the TGI (SF-268 CNS) was > 100 µM. The TGI (SK-OV-3 ovarian) was > 100 µM, the TGI (M14 melanoma) was 44.7 µM and the TGI (SR leukemia) was 88.9 µM. The TGI (HT29 colon) was > 100 µM, the TGI (SK-MEL-28 melanoma) was 39.4 µM and the TGI (MDA-MB-231 breast) was > 100 µM. For the same compound, the TGI (MCF7 breast) was > 100 µM, the TGI (CAKI-1 renal) was > 100 µM and the TGI (MALME-3M melanoma) was 32.6 µM. The TGI (MOLT-4 leukemia) was 88.1 µM, the TGI (UACC-257 melanoma) was > 100 µM and the TGI (TK-10 renal) was > 100 µM. For the same compound, the TGI (CCRF-CEM leukemia) was 67 µM, the TGI (OVCAR-5 ovarian) was > 100 µM and the TGI (UO-31 renal) was > 100 µM. For the same compound, the TGI (SNB-19 CNS) was > 100 µM, the TGI (MDA-MB-435) was > 100 µM and the TGI (SK-MEL-2 melanoma) was > 100 µM. The TGI (HOP-92 NSCLC) was 45.3 µM, the TGI (K-562 leukemia) was 64.4 µM and the TGI (T-47D breast) was > 100 µM. The TGI (BT-549 breast) was > 100 µM, the TGI (NCI/ADR-RES ovarian) was > 100 µM and the TGI (COLO 205 colon) was 32.7 µM. The TGI (OVCAR-8 ovarian) was > 100 µM and the TGI (OVCAR-4 ovarian) was > 100 µM.
